Assay results: patent publication US20100035858A1, “Novel Compositions and Methods for Binding and Inhibiting 5-HT4 Receptor” (Immune Control, Inc., priority 2008, published 2010)
“Also recorded” adds a separate entry of the source. Like-named read-outs stand apart in the source and are kept apart here.

Experiments:
MDR1-MDCK [1] = experiment: MDR1-MDCK Permeability (potential to cross the blood-brain barrier); conditions: for Brain Penetration Classification: from A-B Papp and efflux ratio
Female Lewis rats = experiment: Toxicity in Female Lewis rats; type: in vivo; conditions: 100 mg/kg ip, in comparison with PBS control
Description: The next set of experiments was designed to determine the toxicity of the compounds. Each compound was administered to Female Lewis rats at a dose of 100 mg/kg via ip administration.

[2] = system: B-cell neoplastic cell line RPMI 8226; experiment: Inhibition of proliferation of RPMI cells; type: cell-based; conditions: RPMI cell viability, FIG. 1
Excerpt: The next set of experiments was designed to assess compounds that have low levels of brain penetration for the ability of the test compounds to inhibit cellular proliferation. An exemplary in vitro assay is to screen for the ability of the test compounds to inhibit proliferation of the B-cell neoplastic cell line RPMI 8226 (a plasmacytoma derived from a multiple myeloma patient (Matsuoka, et al., 1967, Proc. Soc. Exp. Biol. Med. 125: 1246-1250). However other cell line can be used such as, U266 (established from an IgE-secreting myeloma patient (Nilsson, et al., 1970, Clin. Exp. Immunol., 7: 477-489) and ARH77 (an EBV transformed plasma cell leukemia (Burk, et al., 1978, Cancer Res. 38: 2508-2513).
FIG. 1 is a graph depicting the effects on the test compounds on RPMI cell viability.

[3] = system: rat model of collagen-induced arthritis; experiment: Rat model of collagen-induced arthritis, ankle diameter; type: in vivo; conditions: for reduction of ankle diameter: 10 mg/kg ip daily, about 3 days, caliper measurement; for efficacy in reducing ankle diameter compared with Enbrel: rheumatoid arthritis rat model, versus Enbrel
Description: The next set of experiments was designed to test the ability of the compounds of the invention on a rat model of collagen-induced arthritis. Briefly, Female Lewis rats were immunized with bovine type 2 collagen 2 mg/mL in 0.01N HAc mixed 1:1 w/ FIA injected id 0.1 mL at each of three sites on back (Rosloniec, E. F., A. H. Kang, L. K. Myers, M. A. Cremer. 1996. Collagen-induced arthritis. R. Coico, and E. Shevach, eds. Current Protocols in Immunology 15.5.1. Weily & Sons, New York.).
FIG. 2 depicts a schematic of the collagen-induced arthritis protocol. Briefly, a test compound of the invention is delivered ip at 10 mg/kg daily, for about 3 days.
FIG. 4 depicts ICI 1260, 1259, 848, 849, 761, 715, and 847 with respect to Enbrel. Additional testing for the effectiveness of compounds ICI 1260, 1259, 848, 849, 761, 715, and 847 at various concentrations (10 mg/kg, 2 mg/kg, 0.4 mg/kg) were conducted, as illustrated in FIGS. 5A-5G. A dose response curve was constructed to illustrate the efficacy of the seven compounds (FIG. 6).

MDR1-MDCK [4] = system: MDR1-MDCK
[5] = molecular target: histamine type 1 receptor (Homo sapiens, UniProt P35367); experiment: Binding to non-5-HT receptors: histamine type 1 receptor; conditions: FIG. 12
Sequence of histamine type 1 receptor (P35367 whole entry): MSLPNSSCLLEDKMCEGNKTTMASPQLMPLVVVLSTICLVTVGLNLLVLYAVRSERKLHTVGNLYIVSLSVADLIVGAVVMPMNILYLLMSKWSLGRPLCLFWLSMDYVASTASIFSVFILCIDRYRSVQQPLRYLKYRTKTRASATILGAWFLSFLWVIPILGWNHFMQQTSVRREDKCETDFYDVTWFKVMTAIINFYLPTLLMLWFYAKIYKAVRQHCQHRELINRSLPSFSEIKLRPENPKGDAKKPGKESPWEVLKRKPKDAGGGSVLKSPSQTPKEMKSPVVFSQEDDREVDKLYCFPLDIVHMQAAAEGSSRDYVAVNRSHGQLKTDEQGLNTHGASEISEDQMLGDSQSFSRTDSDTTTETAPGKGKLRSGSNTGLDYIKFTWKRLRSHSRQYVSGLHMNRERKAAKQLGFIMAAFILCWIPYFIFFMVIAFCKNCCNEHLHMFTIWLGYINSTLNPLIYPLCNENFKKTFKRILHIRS
Description: The methods employed in this study have been adapted from the scientific literature to maximize reliability and reproducibility. Where presented, IC50 values were determined by a non-linear, least squares regression analysis using the DATA ANALYSIS TOOLBOX (MDL Information Systems, San Leandro, Calif., USA). Where inhibition constants (Ki) are presented, the Ki values were calculated using the equation of Cheng and Prusoff (Cheng, Y., Prusoff, W. H., Biochem. Pharmacol. 22:3099-3108, 1973) or equivalent using the observed IC50 of the tested compound, the concentration of ligand employed in the assay, and historical values for the KD of the ligand.
The next set of experiments was designed to assess the selective binding of the test compounds to non-5-HT receptors. The compounds tested are as follows: ICI-735, 848, 849, 1259, and 1260. […] It was also observed that the compounds that bound well to 5-HT4 receptor also bound well to histamine type 1 receptor.

With `FC(F)(F)c1ccc2c(c1)N(CCCN1CCNCC1)c1ccccc1S2` [ICI-00685] the “Brain Penetration Classification” value (MDR1-MDCK [1]) was “Low (3) A-B Papp > 3.0 and Efflux Ratio > 10: Low)”.

In the case of `CN(C)S(=O)(=O)c1ccc2c(c1)N(CCCN1CCN(CCN)CC1)c1ccccc1S2` [ICI-00715], the toxicity (Female Lewis rats) is reported as “not toxic”, the “ability to inhibit proliferation of RPMI cells” value (shortened to “ability to inhibit proliferation”) [2] is reported as “able to inhibit the proliferation of RPMI cells” and the “reduction of ankle diameter” value [3] is reported as “decrease the ankle diameter to a desirable level”. The “efficacy in reducing ankle diameter compared with Enbrel” value (shortened to “efficacy in reducing ankle diameter”) [3] was “more effective in reducing the ankle diameter than Enbrel”.

With `NCC(=O)NCCN1CCN(CCCN2c3ccccc3Sc3ccc(C(F)(F)F)cc32)CC1` [ICI-00735] the “% Recovery A-B” value (MDR1-MDCK [4]) was 47%, the “% Recovery B-A” value (MDR1-MDCK [4]) was 33% and the “Papp A-B” value (MDR1-MDCK [4]) was 2.3 nm/s. The “Papp B-A” value (MDR1-MDCK [4]) was 286 nm/s, the Efflux (MDR1-MDCK [4]; dog) was 124 and the “reduction of ankle diameter” value [3] was “did not have a desirable reduction of ankle diameter”. The “binding to histamine type 1 receptor” value [5] was “able to bind histamine type 1 receptor”.

For `CN(C)CCN1CCN(CCCN2c3ccccc3Sc3ccc(C(F)(F)F)cc32)CC1` [ICI-00738], the toxicity (Female Lewis rats) was “not toxic”.

With `CNCC(=O)NCCN1CCN(CCCN2c3ccccc3Sc3ccc(C(F)(F)F)cc32)CC1` [ICI-00758] the toxicity (Female Lewis rats) was “not toxic” and the “Brain Penetration Classification” value (MDR1-MDCK [1]) was “Low (3) A-B Papp > 3.0 and Efflux Ratio > 10: Low)”.

For `NCCCN1CCN(CCCN2c3ccccc3Sc3ccc(C(F)(F)F)cc32)CC1` [ICI-00760], the “Brain Penetration Classification” value (MDR1-MDCK [1]) was “Low (3) A-B Papp > 3.0 and Efflux Ratio > 10: Low)”.

With `NCC(N)C(=O)NCCN1CCN(CCCN2c3ccccc3Sc3ccc(C(F)(F)F)cc32)CC1` (centres unmarked) [ICI-761] the “ability to inhibit proliferation” value [2] was “able to inhibit the proliferation of RPMI cells”, the “reduction of ankle diameter” value [3] was “decrease the ankle diameter to a desirable level” and the “efficacy in reducing ankle diameter” value [3] was “more effective in reducing the ankle diameter than Enbrel”.

With `NCC(=O)NCCCN1CCN(CCCN2c3ccccc3Sc3ccc(C(F)(F)F)cc32)CC1` [ICI-00822] the “Brain Penetration Classification” value (MDR1-MDCK [1]) was “Low (3) A-B Papp > 3.0 and Efflux Ratio > 10: Low)”.

With `CNCC(=O)NCCCN1CCN(CCCN2c3ccccc3Sc3ccc(C(F)(F)F)cc32)CC1` [ICI-00823] the toxicity (Female Lewis rats) was “not toxic” and the “reduction of ankle diameter” value [3] was “decrease the ankle diameter to a desirable level”.

`FC(F)(F)c1ccc2c(c1)N(CCCC1CCNCC1)c1ccccc1S2` [ICI-00824] was tested, and the toxicity (Female Lewis rats) was “not toxic”.

`NCCN1CCC(CCCN2c3ccccc3Sc3ccc(C(F)(F)F)cc32)CC1` [ICI-00846] was tested, and the “Brain Penetration Classification” value (MDR1-MDCK [1]) was “Low (3) A-B Papp > 3.0 and Efflux Ratio > 10: Low)”.

In the case of `NCCCN1CCC(CCCN2c3ccccc3Sc3ccc(C(F)(F)F)cc32)CC1` [ICI-00847], the “Brain Penetration Classification” value (MDR1-MDCK [1]) is reported as “Low (3) A-B Papp > 3.0 and Efflux Ratio > 10: Low)”, the “ability to inhibit proliferation” value ([2]; listed as ICI-847) is reported as “able to inhibit the proliferation of RPMI cells” and the “reduction of ankle diameter” value ([3]; listed as ICI-847) is reported as “decrease the ankle diameter to a desirable level; also recorded: most desirable reduction of ankle diameter”. For the same molecule, the “efficacy in reducing ankle diameter” value [3] was “more effective in reducing the ankle diameter than Enbrel”.

`CNCC(=O)NCCN1CCC(CCCN2c3ccccc3Sc3ccc(C(F)(F)F)cc32)CC1` [ICI-00849] was tested, and the “Brain Penetration Classification” value (MDR1-MDCK [1]) was “Low (3) A-B Papp > 3.0 and Efflux Ratio > 10: Low)”, the “ability to inhibit proliferation” value [2] was “able to inhibit the proliferation of RPMI cells” and the “reduction of ankle diameter” value ([3]; listed as ICI-849) was “decrease the ankle diameter to a desirable level; also recorded: most desirable reduction of ankle diameter”. For the same molecule, the “efficacy in reducing ankle diameter” value [3] was “more effective in reducing the ankle diameter than Enbrel” and the “binding to histamine type 1 receptor” value [5] was “able to bind histamine type 1 receptor”.

With `CC(=O)NCCN1CCC(CCCN2c3ccccc3Sc3ccc(C(F)(F)F)cc32)CC1` [ICI-00850] the “Brain Penetration Classification” value (MDR1-MDCK [1]) was “Low (3) A-B Papp > 3.0 and Efflux Ratio > 10: Low)”.

`FC(F)(F)c1ccc2c(c1)N(CCCCN1CCNCC1)c1ccccc1S2` [ICI-00890] was tested, and the “Brain Penetration Classification” value (MDR1-MDCK [1]) was “Low (3) A-B Papp > 3.0 and Efflux Ratio > 10: Low)”.

In the case of `N#Cc1ccc2c(c1)N(CCCN1CCN(CCN)CC1)c1ccccc1S2` [ICI-00894], the “Brain Penetration Classification” value (MDR1-MDCK [1]) is reported as “Low (3) A-B Papp > 3.0 and Efflux Ratio > 10: Low)”.

With `OCCN1CCN(CCCN2c3ccccc3Sc3ccc(C(F)(F)F)cc32)CC1` [ICI-01175, fluphenazine, reference compound] the “Brain Penetration Classification” value (MDR1-MDCK [1]) was “High (1) A-B Papp > 3.0 and Efflux Ratio < 3.0: High)”.

With `OCCN1CCN(CCCN2c3ccccc3Sc3ccc(C(F)(F)F)cc32)CC1` [ICI-01176] the “% Recovery A-B” value (MDR1-MDCK [1]; MDR1-MDCK, A-B direction) was 35%, the “Papp A-B” value (MDR1-MDCK [1]; MDR1-MDCK, A-B direction) was 7.8 nm/s and the “% Recovery B-A” value (MDR1-MDCK [1]; MDR1-MDCK, B-A direction) was 55%. The “Papp B-A” value (MDR1-MDCK [1]; MDR1-MDCK, B-A direction) was 342 nm/s, the Efflux (MDR1-MDCK [1]; MDR1-MDCK, efflux ratio) was 44 and the “Brain Penetration Classification” value (MDR1-MDCK [1]) was “Low (3) A-B Papp > 3.0 and Efflux Ratio > 10: Low)”.

For `CN(C)CCCN1CCC(CCCN2c3ccccc3Sc3ccc(C(F)(F)F)cc32)CC1` [ICI-01505], the “Brain Penetration Classification” value (MDR1-MDCK [1]) was “Low (3) A-B Papp > 3.0 and Efflux Ratio > 10: Low)”.
